Experimental findings from patent US20020028938A1, “Prostaglandin endoperoxide H synthase biosynthesis inhibitors” (priority 1997, published 2002) are described below.

Data set [1] deals with T1, human amnionic whole cell cyclooxygenase-2 (WISH cells) (Homo sapiens, UniProt P35354).
T1 construct: endogenous in cells; host or cells: human amnionic WISH cells, induced with IL-1beta
T1 sequence (P35354 18-604): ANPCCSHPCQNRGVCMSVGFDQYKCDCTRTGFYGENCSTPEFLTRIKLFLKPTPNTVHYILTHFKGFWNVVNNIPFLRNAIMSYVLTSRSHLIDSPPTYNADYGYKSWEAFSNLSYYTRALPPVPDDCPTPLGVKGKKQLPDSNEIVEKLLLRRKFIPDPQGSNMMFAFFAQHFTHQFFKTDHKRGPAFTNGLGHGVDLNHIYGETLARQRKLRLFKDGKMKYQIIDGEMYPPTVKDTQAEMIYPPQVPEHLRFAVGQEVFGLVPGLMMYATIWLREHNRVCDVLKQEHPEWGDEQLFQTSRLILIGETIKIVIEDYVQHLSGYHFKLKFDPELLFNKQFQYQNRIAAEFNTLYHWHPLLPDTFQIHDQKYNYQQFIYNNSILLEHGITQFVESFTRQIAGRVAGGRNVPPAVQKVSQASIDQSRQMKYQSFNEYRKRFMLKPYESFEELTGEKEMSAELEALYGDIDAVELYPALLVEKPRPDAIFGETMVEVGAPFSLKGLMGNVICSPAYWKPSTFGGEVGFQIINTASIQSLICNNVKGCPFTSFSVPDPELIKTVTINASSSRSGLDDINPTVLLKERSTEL
The experiment in a line: IL-1β induced PGE2 production in WISH cells. It counts as cell-based. As to conditions: for IC50: read-out: Wish IC50 (parenthetical value); for inhibition at 0.1 µM / inhibition at 1 µM: read-out: Wish % Inhib. at Dose. Here is the method:
EIA reagents for prostaglandin determination were purchased from Perseptive Diagnostics, (Cambridge, Mass.). Prostaglandin E2 (PGE2) levels in lavage fluids were determined after the samples were dried under nitrogen and reconstituted with assay buffer. PGE2 levels in enzyme assays or cell culture media were measured against standards prepared in the same milieu. The immunoassays were conducted as recommended by the manufacturer. The EIA was conducted in 96 well microtiter plates (Nunc Roskilde, Denmark) and optical density was measured using a microplate reader (Vmax, Molecular Devices Corp., Menlo Park, Calif.).
Human amnionic WISH cells were grown to 80% confluence in 48 well plates. Following removal of the growth medium and two washings with Geys Balanced Salt Solutn, 5 ng IL-1β /ml (UBI, Lake Placid, N.Y.) was added to the cells with or without test compound in DMSO (0.01% v/v) in Neuman-Tytell Serumless Medium (GIBCO, Grand Island, N.Y.).

Data set [2] has as its target T2, Human Whole Platelet Cyclooxygenase-1 (Homo sapiens, UniProt P23219).
T2 construct: from tissue; host or cells: human blood: isolated platelets (A4) or heparinised whole blood (A9)
The experiment in a line: Human Whole Platelet Cyclooxygenase-1 assay (HWPX). The settings on record: for IC50: read-out: HWPX IC50 (parenthetical value). In kind it is cell-based. The procedure:
Blood from normal healthy volunteers is collected into tubes containing ACD (acid citrate dextrose) as the anticoagulant. This blood is centrifuged at 175×g to prepare platelet rich plasma. The platelet rich plasma is then centrifuged at 100×g to pellet the white blood cells, leaving the platelets in the supernatant. The supernatant is layered on a cushion of 0.7 mL of 10% bovine serum albumin in Tyrodes solution (Gibco; Grand Island, N.Y.) and then centrifuged at 1000×g. The resulting supernatant from this centrifuigation is then removed and 11 mL of Tyrodes solution is added to the remaining pellet of platelets. The platelets are then aliquoted at 120 μl into a 96 well plate. Experimental compounds are added and allowed to pre-incubate for 10 minutes. At the end of this pre-incubation period, the calcium ionophore A23187 is added to a final concentration of 8.8 μM and the incubation is continued for ten minutes. The reaction is stopped by adding cold 6 mM EDTA, the incubation mixture is centrifuged at 220×g, and the supernatants are then analyzed for thromboxane using a commercial kit from Cayman Chemical (Ann Arbor, Mich.

Data set [3] deals with T3, recombinant human Cox-2 (r-hu Cox-2) (Homo sapiens, UniProt P35354).
T3 construct: made in house; host or cells: baculovirus/Sf9 insect cells (microsomes)
T3 sequence (P35354 18-604): T1 sequence (P35354 18-604)
The data set can be described thus: Recombinant human PGHS-2 enzyme assay (RHUCX2). It counts as biochemical. The settings on record: for IC50: read-out: RHUCX2 IC50 (parenthetical value). A digest of the protocol: (§1)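 Recombinant enzyme reaction ran 2.5 minutes at room temperature, then was quenched with HCl and neutralized with NaOH. PGE2 formed with and without drug was quantified by EIA against standards in the same milieu. Percent inhibition versus control mean; IC50 by linear regression.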

For data set [4], the target named is T4, recombinant human Cox-1 (r-hu Cox1) (Homo sapiens, UniProt P23219).
T4 construct: made in house; host or cells: baculovirus/Sf9 insect cells (microsomes)
T4 sequence (P23219 24-599): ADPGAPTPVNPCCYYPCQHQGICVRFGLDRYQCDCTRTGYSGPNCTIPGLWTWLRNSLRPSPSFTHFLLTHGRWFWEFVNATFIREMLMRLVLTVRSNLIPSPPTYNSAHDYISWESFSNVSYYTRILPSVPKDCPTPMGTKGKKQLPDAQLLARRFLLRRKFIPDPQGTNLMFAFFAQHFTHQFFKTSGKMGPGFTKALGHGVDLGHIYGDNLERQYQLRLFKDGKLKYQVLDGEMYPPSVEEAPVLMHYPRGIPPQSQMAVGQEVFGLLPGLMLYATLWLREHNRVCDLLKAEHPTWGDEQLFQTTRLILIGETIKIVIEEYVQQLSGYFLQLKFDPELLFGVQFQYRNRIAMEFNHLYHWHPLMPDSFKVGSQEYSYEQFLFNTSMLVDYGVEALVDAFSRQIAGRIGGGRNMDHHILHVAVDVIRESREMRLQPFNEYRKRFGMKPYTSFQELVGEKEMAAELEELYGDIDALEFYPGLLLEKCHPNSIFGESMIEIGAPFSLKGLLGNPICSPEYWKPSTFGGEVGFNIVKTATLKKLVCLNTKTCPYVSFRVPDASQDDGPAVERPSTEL
The data set can be described thus: Recombinant human PGHS-1 enzyme assay (RHUCX1). It counts as biochemical. The settings on record: 100 μM; for inhibition at 100 µM: read-out: RHUCX1 % Inh. at Dose. In a few lines:
as §1

[5] abbreviates: 10 μM, read-out: HWPX % Inhib. at Dose.
[6] abbreviates: read-out: HWPX % Inhib. at Dose.
[7] abbreviates: 0.1 μM, read-out: RHUCX2 % Inh. at Dose.
[8] abbreviates: 1 μM, read-out: RHUCX2 % Inh. at Dose.

T2 sequence (P23219 24-599): as above

Regarding “2-(5-Methylthien-2-ylmethyl)-4-(4-fluorophenyl)-5-[4-(methylsulfonyl)phenyl]-3(2H)-pyridazinone [Example 43]”, the IC50 in data set [1] was found to be 8 nM. Moreover, the “HWPX % Inhib. at Dose (μM)” value is 9 @ 1% in data set [2] (1 μM) and 86 @ 10% in data set [2] (10 μM). Moreover, the entries for the “RHUCX2 % Inh. at Dose (μM)” value in data set [3] (0.1 μM) and in data set [3] (1 μM) were 96 @ 0.1% and 100 @ 1%, respectively. Also, the “RHUCX1 % Inh. at Dose (μM)” value in data set [4] is given as 8 @ 100%.

With `CS(=O)(=O)c1ccc(-c2cnn(Cc3ccccc3)c(=O)c2Oc2ccc(F)cc2)cc1` [Example 75], the melting point fell in the range of 188 to 190 °C. The inhibition at 3 µM in data set [2] (3 μM, read-out: HWPX % Inhib. at Dose) came to 0%. For the same molecule, in data set [2] (setting [5]), the inhibition at 10 µM is 84%.

`CC(c1ccc(F)c(F)c1)n1ncc(-c2ccc(S(N)(=O)=O)cc2)c(-c2ccc(F)cc2)c1=O` (stereo not drawn) [Example 148, 2-(α-Methyl-3,4-difluorobenzyl)-4-(4-fluorophenyl)-5-[4-(aminosulfonlI)phenyl]-3(2H)-pyridazinone] registered a melting point of 214 to 215 °C. Further, the IC50 in data set [1] was found to be 42 nM. Further, the inhibition at 0.3 µM in data set [2] (0.3 μM, read-out: HWPX % Inhib. at Dose) stood at 51%.

With `Cc1cc(-n2ncc(-c3ccc(S(C)(=O)=O)cc3)c(-c3ccc(F)cc3)c2=O)ccc1F` [Example 189, 2-(4-Fluoro-3-methylphenyl)-4-(4-fluorophenyl)-5-[4-(methylsulfonyl)phenyl]-3(2H)-pyridazinone], the melting point fell in the range of 168 to 170 °C. For the same molecule, the half-maximal inhibitory concentration (IC50) in data set [1] stood at 41 nM. Besides, in data set [2] (setting [6]), the inhibition at 100 µM was found to be 31%.

Regarding `Cc1cc(-c2c(-c3ccc(S(C)(=O)=O)cc3)cnn(-c3cccc(Cl)c3)c2=O)ccc1F` [Example 244, 2-(3-Chlorophenyl)-4-(4-fluoro-3-methylphenyl)-5-[4-(methylsulfonyl)phenyl]-3(2H)-pyridazinone], the melting point was in the range of 228 to 230 °C. The IC50 in data set [1] worked out at 19 nM. Moreover, the half-inhibitory concentration (IC50) in data set [2] came to 3670 nM.

Molecule `CS(=O)(=O)c1ccc(-c2cnn(CC(F)(F)F)c(=O)c2SC2CCCCC2)cc1` [Example 287, 2-(2,2,2-Trifluoroethyl)-4-(cyclohexylthio)-5-[4-(methylsulfonyl)phenyl]-3(2H)-pyridazinone] showed a melting point of 165 to 167 °C. Further, the half-inhibitory concentration (IC50) in data set [1] came to 160 nM. Moreover, the inhibition at 0.1 µM in data set [3] (setting [7]) was determined as 25%. Also, the inhibition at 1 µM in data set [3] (setting [8]) was determined as 79%. The inhibition at 10 µM in data set [3] (10 μM, read-out: RHUCX2 % Inh. at Dose) turned out to be 93%. For the same molecule, the inhibition at 100 µM in data set [4] is 0%.

Consider `CS(=O)(=O)c1ccc(-c2cnn(Cc3ccccc3)c(=O)c2-c2ccc(Cl)s2)cc1` [Example 320, 2-Benzyl-4-(5-chloro-2-thienyl)-5-[4-(methylsulfonyl)phenyl]-3(2H)-pyrdazinone], for which the “Wish % Inhib. at Dose (μM)” value in data set [1] (0.01 μM) is 15 @ .01%; in data set [1] (0.1 μM), 78 @ .1%. Besides, the “HWPX % Inhib. at Dose (μM)” value in data set [2] (3 μM) is given as 29 @ 3%.

Consider `Cc1ccc(-c2c(-c3ccc(S(C)(=O)=O)cc3)cnn(Cc3ccccc3)c2=O)cc1C` [Example 325, 2-Benzyl-4-(3,4-dimethylphenl)-5-[4-(methylsulfonyl)phenyl]-3(2H)-pyridazinone], for which the half-inhibitory concentration (IC50) in data set [1] came out at 40 nM; in data set [2], 2300 nM; in data set [3] it was 199 nM.

Take `CS(=O)(=O)c1ccc(-c2cnn(-c3cccc(Cl)c3)c(=O)c2Oc2ccccc2)cc1` [Example 343, 2-(3-Chlorophenyl)-4-(phenoxy)-5-[4-(methylsulfonyl)phenyl]-3(2H)-pyridazinone]: the melting point is 205 to 207 °C. Moreover, in data set [1], the half-maximal inhibitory concentration (IC50) is 16 nM. The IC50 in data set [2] was 191 nM.

`CN(C)c1cccc(Oc2c(-c3ccc(S(C)(=O)=O)cc3)cnn(-c3cccc(Cl)c3)c2=O)c1` [Example 344, 2-(3-Chlorophenyl)-4-[3-(dimethylamino)phenoxy]-5-[4-(methylsulfonyl)phenyl]-3(2H)-pyridazinone] came in with a melting point of 191 to 193 °C. Besides, the IC50 in data set [1] is 100 nM. The half-inhibitory concentration (IC50) in data set [3] amounted to 897 nM. Besides, in data set [4], the inhibition at 100 µM worked out at 16%.

`COc1ccc(Oc2c(-c3ccc(S(C)(=O)=O)cc3)cnn(-c3cccc(Cl)c3)c2=O)cc1` [Example 345, 2-(3-Chloroophenyl)-4-(4-methoxyphenoxy)-5-[4-(methylsulfonyl)phenyl]-3(2H)-pyridazinone] yielded a melting point of 182 to 184 °C. In data set [1], the IC50 worked out at 30 nM. For the same molecule, the IC50 in data set [3] is 242 nM. In addition, the inhibition at 100 µM in data set [4] worked out at 0%.

`CS(=O)(=O)c1ccc(-c2cnn(-c3cccc(Cl)c3)c(=O)c2Sc2ccccn2)cc1` [Example 358, 2-(3-Chlorophenyl)-4-(2-pyridylthio)-5-[4-(methylsulfonyl)phenyl]-3(2H)-pyridazinone] registered a melting point of 110 to 114 °C. Moreover, in data set [1] (0.1 μM), the inhibition at 0.1 µM was 0%. The inhibition at 1 µM in data set [1] was 69%. Besides, the half-maximal inhibitory concentration (IC50) in data set [3] amounted to 2450 nM. Also, the inhibition at 100 µM in data set [4] came to 30%.

For `NS(=O)(=O)c1ccc(-c2cnn(CC=C(F)F)c(=O)c2-c2ccc(F)cc2)cc1F` [Example 408], the melting point was in the range of 180 to 183 °C. Moreover, in data set [1], the IC50 worked out at 29 nM. In addition, the IC50 in data set [3] was 279 nM. Moreover, in data set [4], the inhibition at 100 µM was determined as 0%.

Molecule `CC(C)CCCOc1c(-c2ccc(S(C)(=O)=O)cc2)cnn(-c2ccc(F)cc2)c1=O` [Example 414, 2-(4-Fluorophenyl)-4-(4-methylpentyloxy)-5-[4-(methylsulfonyl)phenyl]-3(2H)-pyridazinone] gave a melting point of 123 to 125 °C. Also, in data set [1] (0.1 μM), the inhibition at 0.1 µM is 46%. Besides, the inhibition at 1 µM in data set [1] is 54%. In addition, the inhibition at 0.1 µM in data set [3] (setting [7]) was 76%. Besides, the inhibition at 1 µM in data set [3] (setting [8]) was 87%. Besides, in data set [4], the inhibition at 100 µM was 0%.

Take `CCC(CC)COc1c(-c2ccc(S(C)(=O)=O)cc2)cnn(-c2ccc(F)cc2)c1=O` [Example 430, 2-(4-Fluorophenyl)-4-(2-ethyl-1-butoxy)-5-[4-(methylsulfonyl)phenyl]-3(2H)-pyridazinone]: the melting point fell in the range of 107 to 108 °C. Moreover, the IC50 in data set [1] turned out to be 54 nM. In addition, the inhibition at 10 µM in data set [2] (setting [5]) was 34%. Further, the inhibition at 100 µM in data set [2] (setting [6]) came to 89%.

As for `COC(Cn1ncc(-c2ccc(S(C)(=O)=O)cc2)c(-c2ccc(F)cc2)c1=O)c1ccccc1` (centres unmarked) [Example 442, 2-(2-Methoxy-2-phenylethyl)-4-(4-fluorophenyl)-5-[4-(methylsulfonyl)phenyl]-3(2H)-pyridazinone], the melting point is 135 to 137 °C. In addition, the IC50 in data set [1] was determined as 420 nM. The inhibition at 0.01 µM in data set [3] (0.01 μM, read-out: RHUCX2 % Inh. at Dose) came out at 56%. In addition, the inhibition at 0.1 µM in data set [3] (setting [7]) stood at 90%. Besides, the inhibition at 100 µM in data set [4] came out at 55%.

What is called IC50 is the point on the concentration scale where inhibition reaches its midpoint. What is called melting point is the temperature, or range, at which the solid turns liquid.
